Experimental data as given in patent publication US8106055B2, “Substituted amide compounds” (Gruenenthal GmbH, priority 2007, dated 2012).
Read-outs that look alike come from different tables or passages of the source.

Columns and labels:
[1] = target: T1, serotonin (5-HT) reuptake (Rattus norvegicus, UniProt P31652); experiment: Inhibition of serotonin (5HT) reuptake in synaptosomes from rat brain; format: biochemical; conditions: test concentration of 10 μM; for inhibition at 10 µM: read-out: 5-HT (inhibition of reuptake of serotonin, % inhibition)
T1 construct: synaptosomes are freshly isolated from areas of the rat brain; from tissue; host or cells: rat brain synaptosomes (P2 fraction)
T1 sequence (P31652 whole entry): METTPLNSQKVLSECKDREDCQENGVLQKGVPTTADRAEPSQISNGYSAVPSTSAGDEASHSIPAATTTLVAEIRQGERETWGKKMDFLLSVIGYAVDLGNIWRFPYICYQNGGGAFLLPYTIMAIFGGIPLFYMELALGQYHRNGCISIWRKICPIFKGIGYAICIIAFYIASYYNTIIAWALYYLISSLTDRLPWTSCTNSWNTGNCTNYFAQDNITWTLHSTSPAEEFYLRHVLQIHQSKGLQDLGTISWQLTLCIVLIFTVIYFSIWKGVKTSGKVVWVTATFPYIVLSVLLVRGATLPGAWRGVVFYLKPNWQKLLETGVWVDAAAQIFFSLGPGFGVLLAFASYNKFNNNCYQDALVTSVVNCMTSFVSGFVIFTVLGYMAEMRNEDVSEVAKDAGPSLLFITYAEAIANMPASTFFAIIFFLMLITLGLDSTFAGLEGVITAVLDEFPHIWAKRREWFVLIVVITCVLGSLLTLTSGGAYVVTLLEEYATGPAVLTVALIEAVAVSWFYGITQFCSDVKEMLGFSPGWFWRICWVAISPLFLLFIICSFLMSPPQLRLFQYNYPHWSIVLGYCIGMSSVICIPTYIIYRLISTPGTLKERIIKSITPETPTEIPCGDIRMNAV
Experimental: Binding data of the compounds on the μ opioid receptor and data on the inhibition of reuptake of serotonin (5-HT) are given in Table 1. The data for the μ receptor were measured at a test concentration of 1 μM, and those for the serotonin reuptake at 10 μM. The values are stated in % inhibition.
Inhibition of Serotonin (5HT) Reuptake
In order to be able to carry out these in vitro studies, synaptosomes are freshly isolated from areas of the rat brain. In each case a so-called “P2” fraction prepared in accordance with the instructions of Gray and Whittaker (E. G. Gray and V. P. Whittaker (1962) J. Anat. 76, 79-88) is prepared. For the NA uptake, these vesicular particles are isolated from the hypothalamus of male rat brains.
A detailed description of the method can be found in the literature (M. Ch. Frink, H.-H. Hennies, W. Englberger, M. Haurand and B. Wilffert (1996) Arzneim.-Forsch./Drug Res. 46 (III), 11, 1029-1036).

human μ opiate receptor = target: T2, human μ opiate receptor (Homo sapiens, UniProt P35372); experiment: Affinity for the human μ opiate receptor ([3H]-naloxone displacement, CHO-K1 receptor membrane preparation, SPA); format: binding
T2 construct: purchased PerkinElmer Life Sciences, Zaventem, Belgium RB-HOM; host or cells: CHO-K1 cells (membrane preparation)
T2 sequence (P35372 whole entry): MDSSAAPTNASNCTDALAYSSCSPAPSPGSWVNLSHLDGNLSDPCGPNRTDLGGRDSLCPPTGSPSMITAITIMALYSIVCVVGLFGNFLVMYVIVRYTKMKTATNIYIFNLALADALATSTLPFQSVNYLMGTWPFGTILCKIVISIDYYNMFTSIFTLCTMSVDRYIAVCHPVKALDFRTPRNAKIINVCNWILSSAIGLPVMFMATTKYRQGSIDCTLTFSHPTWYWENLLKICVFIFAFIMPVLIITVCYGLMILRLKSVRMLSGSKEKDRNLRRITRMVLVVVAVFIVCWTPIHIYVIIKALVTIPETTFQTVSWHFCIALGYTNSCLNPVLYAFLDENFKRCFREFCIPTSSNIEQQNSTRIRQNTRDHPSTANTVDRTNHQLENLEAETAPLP
Method in brief: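 At 1 μmol/l, compounds were scored for % displacement of 1 nmol/l [3H]-naloxone from CHO-K1-expressed human μ opiate receptor in a homogeneous SPA format (90 min, room temperature).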

[2] = target: T3, bradykinin 1 receptor (B1R) of the rat (Rattus norvegicus, UniProt P97583); experiment: Functional investigation on the rat bradykinin 1 receptor (B1R), Ca2+ FLIPR assay in CHO K1 rB1R cells; format: cell-based; conditions: test substance 10 μM; for inhibition at 10 µM: CHO-K1, B1R antagonism rat, % inhibition compared with the maximum achievable inhibition, read-out: B1R Ant. r [10 μM] % Inhibition
T3 construct: expressed in transfected cells; host or cells: CHO K1 cells
T3 sequence (P97583 1-337): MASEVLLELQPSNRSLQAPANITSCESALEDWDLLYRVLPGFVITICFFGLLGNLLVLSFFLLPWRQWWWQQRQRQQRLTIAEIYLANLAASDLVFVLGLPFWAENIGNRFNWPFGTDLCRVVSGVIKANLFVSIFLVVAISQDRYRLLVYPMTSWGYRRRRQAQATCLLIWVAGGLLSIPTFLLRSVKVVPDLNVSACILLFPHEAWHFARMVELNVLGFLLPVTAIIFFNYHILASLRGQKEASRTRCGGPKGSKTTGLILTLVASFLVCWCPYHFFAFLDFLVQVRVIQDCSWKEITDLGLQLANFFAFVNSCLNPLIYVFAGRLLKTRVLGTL
Method in brief: (§1)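 Peak Ca2+-dependent fluorescence in B1R-transfected CHO K1 cells measures antagonism of an EC80 agonist challenge given 10-20 min after compound. Agonist is Lys-Des-Arg9-bradykinin for human, Des-Arg9-bradykinin for rat receptor.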

[3] = target: T4, human bradykinin 1 receptor (B1R) (Homo sapiens, UniProt P46663); experiment: Functional investigation on the human bradykinin 1 receptor (B1R), Ca2+ FLIPR assay in CHO K1 hB1R cells; format: cell-based; conditions: test substance 10 μM; for inhibition at 10 µM: CHO-K1, B1R antagonism human, % inhibition compared with the maximum achievable inhibition, read-out: B1R Ant. h [10 μM] % Inhibition
T4 construct: expressed in transfected cells; host or cells: CHO K1 cells
T4 sequence (P46663 1-353): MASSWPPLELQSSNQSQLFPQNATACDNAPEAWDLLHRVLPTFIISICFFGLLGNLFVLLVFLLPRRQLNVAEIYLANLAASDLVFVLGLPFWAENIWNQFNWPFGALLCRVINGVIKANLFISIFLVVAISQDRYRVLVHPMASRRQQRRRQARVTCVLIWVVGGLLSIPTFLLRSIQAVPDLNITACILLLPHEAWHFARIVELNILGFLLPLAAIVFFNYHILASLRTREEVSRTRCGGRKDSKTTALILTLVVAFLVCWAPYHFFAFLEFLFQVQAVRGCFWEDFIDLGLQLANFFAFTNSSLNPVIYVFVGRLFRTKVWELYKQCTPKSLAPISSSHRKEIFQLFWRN
Method in brief: as §1

[4] = test concentration of 1 μM, 1 µM
[5] = 1.5 h, Table 3, to be read in the same way as Table 1, test concentration 1 μM, read-out: μ

| Molecule | μ (binding on the μ opioid receptor, % inhibition) (human μ opiate receptor; test concentration of 1 μM) [%] | 5-HT (inhibition of reuptake of serotonin, % inhibition) [1] [%] | also measured |
| --- | --- | --- | --- |
| CC(Oc1ccccc1)C(=O)NCC1CCC(C(c2ccc(Cl)cc2)N(C)C)CC1 (single isomer, unassigned) [Example 237] | 81 |  | 5-HT (inhibition of reuptake of serotonin, % inhibition) ([1]; 10 µM): 52% |
| CC(Oc1ccccc1)C(=O)NCC1CCC(C(c2ccc(Cl)cc2)N(C)C)CC1 (single isomer, unassigned) [Example 238] | 81 |  | 5-HT (inhibition of reuptake of serotonin, % inhibition) ([1]; 10 µM): 38% |
| CC(Oc1ccccc1)C(=O)NCC1CCC(C(c2cccs2)N(C)C)CC1 (centres unmarked) [Example 2, N-((4-((dimethylamino)(thiophen-2-yl)methyl)cyclohexyl)methyl)-2-phenoxypropanamide] |  |  | inhibition at 10 µM [1]: 69% |
| CC(Oc1ccccc1)C(=O)NCC1CCC(C(c2ccccc2)N(C)C)CC1 (centres unmarked) [Example 50, N-((4-((dimethylamino)(phenyl)methyl)cyclohexyl)methyl)-2-phenoxypropanamide] |  |  | inhibition at 10 µM [1]: 65% |
| CC(Oc1ccccc1)C(=O)NCC1CCC(C(c2cccc(F)c2)N(C)C)CC1 (centres unmarked) [Example 79, N-((4-((dimethylamino)(3-fluorophenyl)methyl)cyclohexyl)methyl)-2-phenoxypropanamide] |  |  | 5-HT (inhibition of reuptake of serotonin, % inhibition) ([1]; 10 µM): 64% |
| CC(Oc1ccccc1)C(=O)NCC1CCC(C(c2cccc(F)c2)N(C)C)CC1 (centres unmarked) [Example 108, N-((4-((dimethylamino)(3-fluorophenyl)methyl)cyclohexyl)methyl)-2-phenoxypropanamide] |  |  | inhibition at 10 µM [1]: 63%; inhibition at 1 µM (human μ opiate receptor; test concentration of 1 μM, read-out: μ (binding on the μ opioid receptor, % inhibition)): 91% |
| CC(Oc1ccccc1)C(=O)NCC1CCC(C(c2cccc(F)c2)N(C)C)CC1 (centres unmarked) [Example 122, N-((4-((dimethylamino)(3-fluorophenyl)methyl)cyclohexyl)methyl)-2-phenoxypropanamide] |  |  | 5-HT (inhibition of reuptake of serotonin, % inhibition) ([1]; 10 µM): 57% |
| CN(C)C(c1ccccc1)C1CCC(CCNC(=O)COCc2ccccc2)CC1 (centres unmarked) [Example 134, 2-(benzyloxy)-N-(2-(4-((dimethylamino)(phenyl)-methyl)cyclohexyl)ethyl)acetamide] |  |  | inhibition at 10 µM [1]: 67% |
| CC(Oc1ccccc1)C(=O)NC1CCC(C(c2cccc(F)c2)N(C)C)CC1 (centres unmarked) [Example 153, N-(4-((dimethylamino)(3-fluorophenyl)methyl)cyclohexyl)-2-phenoxypropanamide] |  |  | inhibition at 10 µM [1]: 27% |
| CC(Oc1ccccc1)C(=O)NC1CCC(C(c2ccccc2)N(C)C)CC1 (centres unmarked) [Example 181, N-(4-((dimethylamino)(phenyl)methyl)cyclohexyl)-2-phenoxypropanamide] |  |  | inhibition at 10 µM [1]: 46% |
| CC(Oc1ccccc1)C(=O)NCC1CCC(C(c2ccc(F)cc2)N(C)C)CC1 (centres unmarked) [Example 236] | 81 | 63 |  |
| CN(C)C(c1ccccc1)C1CCC(NC(=O)COCc2ccccc2)CC1 (centres unmarked) [Example 245] | 80 | 59 |  |
| CC(Oc1ccccc1)C(=O)NCCC1CCC(C(c2ccccc2)N(C)C)CC1 (centres unmarked) [Example 270] | 77 | 73 |  |
| CC(Oc1ccccc1)C(=O)NCCC1CCC(C(c2cccs2)N(C)C)CC1 (centres unmarked) [Example 315] | 72 | 61 |  |
| CN(C)C(c1ccccc1)C1CCC(NC(=O)COc2ccc(Cl)cc2)CC1 (centres unmarked) [Example 316] | 72 | 59 |  |
| CN(C)C(c1cccc(F)c1)C1CCC(NC(=O)COCc2ccccc2)CC1 (centres unmarked) [Example 353] | 67 | 60 |  |
| CC(=O)OC(C(=O)NCC1CCC(C(c2ccc(Cl)cc2)N(C)C)CC1)c1ccccc1 (centres unmarked) [Example 360] | 66 | 15 |  |
| CCOC(=O)C(=O)NCC1CCC(C(CCc2ccccc2)N(C)C)CC1 (centres unmarked) [Example 421] | 57 | 26 |  |
| CC(Oc1ccccc1)C(=O)NCCC1CCC(C(c2ccc(F)cc2)N(C)C)CC1 (centres unmarked) [Example 455] | 51 | 74 |  |
| CN(C)C(c1ccc(Cl)cc1)C1CCC(CCNC(=O)COCc2ccccc2)CC1 (centres unmarked) [Example 482] | 47 | 55 |  |
| CC(Oc1ccccc1)C(=O)NCC1CCC(C(CCc2ccccc2)N(C)C)CC1 (centres unmarked) [Example 495] | 44 | 48 |  |
| CN(C)C(c1cccc(F)c1)C1CCC(NC(=O)COc2ccc(Cl)cc2)CC1 (centres unmarked) [Example 505] | 42 | 59 |  |
| CN(C)C(c1ccc(F)cc1)C1CCC(NC(=O)COCc2ccccc2)CC1 (centres unmarked) [Example 529] | 37 | 59 |  |
| CC(Oc1ccccc1)C(=O)NC1CCC(C(CCc2ccccc2)N(C)C)CC1 (centres unmarked) [Example 545] |  |  | 5-HT (inhibition of reuptake of serotonin, % inhibition) ([1]; 10 µM): 52%; μ (binding on the μ opioid receptor, % inhibition) (human μ opiate receptor; [4]): 30% |
| CN(C)C(CCc1ccccc1)C1CCC(NC(=O)COc2ccc(Cl)cc2)CC1 (centres unmarked) [Example 564] | 24 | 47 |  |
| CC(Oc1ccccc1)C(=O)NC1CCC(C(CCc2ccccc2)N(C)C)CC1 (centres unmarked) [Example 577] |  |  | 5-HT (inhibition of reuptake of serotonin, % inhibition) ([1]; 10 µM): 16%; μ (binding on the μ opioid receptor, % inhibition) (human μ opiate receptor; [4]): 14% |
| COC(=O)C(=O)NCCC1CCC(C(c2ccccc2)N(C)C)CC1 (centres unmarked) [Example 579] | 11 | 59 |  |
| CN1CCN(C(CCc2ccccc2)C2CCN(C(=O)COCC3CCc4ccccc4N3S(=O)(=O)c3ccc(Cl)c(Cl)c3)CC2)CC1 (centres unmarked) [Example 811, 2-((1-(3,4-dichlorophenylsulfonyl)-1,2,3,4-tetrahydroquinolin-2-yl)methoxy)-1-(4-(1-(4-methylpiperazin-1-yl)-3-phenylpropyl)piperidin-1-yl)ethanone] |  |  | inhibition at 10 µM [2]: 96%; inhibition at 1 µM (human μ opiate receptor; [5]): 20%; inhibition at 10 µM [3]: 104% |
| CN1CCN(C(Cc2ccccc2)C2CCN(C(=O)COCC3CCc4ccccc4N3S(=O)(=O)c3ccc(Cl)c(Cl)c3)CC2)CC1 (centres unmarked) [Example 812, 2-((1-(3,4-dichlorophenylsulfonyl)-1,2,3,4-tetrahydroquinolin-2-yl)methoxy)-1-(4-(1-(4-methylpiperazin-1-yl)-2-phenylethyl)piperidin-1-yl)ethanone] |  |  | inhibition at 10 µM [2]: 98%; inhibition at 1 µM (human μ opiate receptor; [5]): 37%; inhibition at 10 µM [3]: 105% |
| N-((4-(morpholino(phenyl)methyl)cyclohexyl)methyl)-2-((1-(2,4,6-trichlorophenylsulfonyl)piperidin-3-yl)methoxy)acetamide [Example 713] |  |  | B1R Ant. r [10 μM] % Inhibition ([2]; B1R antagonism rat, Ca2+ FLIPR, CHO K1 rB1R cells): 16%; μ (human μ opiate receptor; Table 3, to be read in the same way as Table 1, test concentration 1 μM): 14 % inhibition; B1R Ant. h [10 μM] % Inhibition ([3]; B1R antagonism human, Ca2+ FLIPR, CHO K1 hB1R cells): −15% |
